Source: paper PMC5730592, “Parallelogram based approach for in vivo dose estimation of genotoxic metabolites in humans with relevance to reduction of animal experiments” (Scientific Reports, 2017)
Where “and” joins values, the source holds several entries; their conditions need not be identical. Equal entries are not always repeated. Where two headings read alike, the source gives them in different places.

Columns and labels:
[1] = In vivo dose (AUC) in human calculated from measured Hb adduct levels after AA exposure; conditions: human in vivo study used (dietary AA)
Method: (§1) The in vivo dose or AUC of a compound in blood is the concentration integrated over time (Eq. 2).2 AUC=∫tC(t)dt A method to infer the AUC of an electrophilic compound or metabolite from measured Hb adduct levels (A) has been developed and established by our research group for quantitative monitoring of exposure in humans or for application in animal studies[1],[3]. When Hb adduct formation is measured a short time after a single acute exposure, or after incubation in vitro, AUC can be calculated using Eq. 3. This equation is based on A, and the second-order reaction rate constant (kNu) for the formation of an adduct to a nucleophilic site in Hb from the concerned electrophile.3 AUC=A/kNu
(§2) For calculating the daily AUC from a longer duration of exposure, the daily adduct level increments (a) have to be calculated considering the accumulation and elimination of adducts due to lifetime of the erythrocytes (t er). […] From continuous or subchronic exposure when the exposure time (t) is shorter than t er, the accumulated adduct level is calculated [a × t × (1 − t/2t er)][49].
In vivo dose or AUC of AA and of GA in human after intake of AA-rich food was obtained from Vikström et al.[23]. […] The measured adduct levels were used to calculate the daily adduct level increment, a, and adjusted for intake per kg bw (exposure dose 11 μg AA/kg bw). […]

[2] = In vivo dose (AUC) in rat calculated from measured Hb adduct levels after AA exposure; conditions: rat in vivo study used (AA in drinking water)
Method: as §1, §2
For in vivo data on AUC of AA and of GA from AA exposure in rats, a study on short-term oral exposure of rats was used[24]. […] Blood samples were collected and AA- and GA-adducts to N-terminal valine in Hb were measured as described above, and recalculated to the daily increment of the adduct level. […]

[3] = cited from earlier work
[4] = cited from earlier work; remark: listed apart in the source
[5] = liver microsomes, rat (male, SD) vs. human (male); cited from earlier work
[6] = design: method as in Doerge at al. (2005); conditions: male F344 rats, single dietary exposure ca. 100 µg AA/kg bw, n = 7, direct measurements; ref Doerge at al. (2005); cited from earlier work
[7] = male rat, different AA exposure studies, various methods; cited from earlier work
[8] = Parallelogram approach prediction of AUC-DEB in rat from BD exposure; conditions: from the parallelogram approach
Method: The inter-species extrapolation was performed using in vitro metabolic data on enzyme kinetics and published Hb adduct data[6]. This study was initiated as the AUC of DEB (AUC-DEB), in humans exposed to BD, had not been possible to measure with available methods.
(§3) In our first application of the parallelogram approach, AUC-DEB was predicted in a case study on BD exposure. […] In the case of BD, the relatively large inter-species differences in metabolism were an advantage for testing of the approach.

[9] = AUC-DEB in rat calculated from measured Hb adduct levels after BD exposure; type: in vivo
Description: as §3

[10] = design: method as in PMID 25448046; conditions: human, for 1 ppm·h of BD exposure; cited from earlier work
[11] = design: method as in PMID 25448046; conditions: rat, for 1 ppm·h of BD exposure; cited from earlier work
[12] = design: method as in PMID 25448046; conditions: mouse, for 1 ppm·h of BD exposure; cited from earlier work
[13] = design: method as in PMID 25448046; conditions: occupationally BD-exposed humans; cited from earlier work
[14] = design: method as in PMID 25448046; conditions: rat exposed to BD; cited from earlier work
[15] = design: method as in PMID 25448046; conditions: mouse exposed to BD; cited from earlier work

## C=CC(N)=O [AA, Acrylamide]
[1]
  in vivo levels of AA (estimated): about 100 nM
[2]
  in vivo levels of AA (estimated): ~25 µM
[3]; Human, AA-rich food 4 days, 11 μg AA/kg bw, adducts to N-terminal valine
  daily Hb adduct level increment per exposure dose: 1.4 pmol/g globin per μg AA/kg bw and day
[3]; Human, ca. 11 μg AA/kg bw and day through food, 4 days, n = 9, from Hb adducts
  AUC-AA: 212 ± 56 nM·h/μg AA per kg bw and 212 nM·h/μg AA per kg bw
[3]; Humans, ca. 2.5 μg AA/kg bw daily through food, 28 days, n = 9, ref Vikström et al. (2011)
  AUC-AA: 120 nM·h/ μg AA per kg bw
[3]; Humans, single dose in drinking water 500, 1000 and 3000 µg AA/kg bw, n = 6 males, ref Fennell et al. (2005)
  AUC-AA: 246 nM·h/ μg AA per kg bw
[4]; Rat (male F344), 500 and 2000 μg AA/kg bw and day in drinking water, one week, n = 6, from Hb adducts
  AUC-AA: 34 ± 3 nM·h/μg AA per kg bw and 34 nM·h/μg AA per kg bw
[4]; SD rat (male), subchronic intraperitoneal AA, Hb adducts on cysteine site
  AUC of AA: 28.2 nM·h per μg AA per kg bw
[4]; male F344 rats, single dose 0.1 mg AA/kg bw, Hb adducts, ref Tareke et al. (2006)
  AUC-AA: 23 nM·h/ μg AA per kg bw
[5]
  oxidation to GA, rat compared to human (times faster in rat): ca. 3 times
[6]
  AUC-AA: 18 nM·h/ μg AA per kg bw
[7]
  range of AUC-AA: 18–80 nM·h per μg AA per kg bw

## C1OC1C1CO1 (centres unmarked) [DEB, 1,2:3,4-diepoxbutane]
[8]
  ratio for rat-to-human of AUC-DEB per AUC-EB: 2.2
[9]
  ratio for rat-to-human of AUC-DEB per AUC-EB: 4.3
[10]
  AUC-DEB predicted (parallelogram approach): 0.078 nM·h
[11]
  AUC-DEB predicted (parallelogram approach): 1.26 nM·h
[12]
  AUC-DEB predicted (parallelogram approach): 41 nM·h
[13]
  AUC-DEB calculated from measured Hb adducts levels: 0.023 nM·h/ppm·h BD
[14]
  AUC-DEB calculated from measured Hb adducts levels: 1.37 nM·h/ppm·h BD
[15]
  AUC-DEB calculated from measured Hb adducts levels: 38 nM·h/ppm·h BD
